Test results reported in patent US20170369474A1, “COMPOUNDS, COMPOSITIONS AND METHODS OF USE” (Aquinnah Pharmaceuticals, Inc., priority 2014, published 2017).
Read-outs that look alike come from different tables or passages of the source.

How the values were obtained:
[1] = system: TDP-43 aggregates in motor neurons generated from ALS patient-derived iPSCs; test: Reduction of insoluble TDP-43 levels (immunoblot); type: cell-based; conditions: 2 μM for 48 hours
Description: The cells were differentiated into motor neurons for 22 days, then treated with 2 μM of Compounds 100, 101, and Compound 7 for 48 hours. The cells were lysed and TDP-43 aggregate formation was detected by immunoblot.

[2] = system: C. elegans expressing A315T hTDP-43; test: Neuroprotection of C. elegans; type: in vivo; conditions: 34.8 μM; A315T transgenic animals, second day of adulthood
Description: Age synchronized C. elegans were cultured with 34.8 μM Compound 100 and the effect on the animal's movement and motor neurons were investigated. FIGS. 2A-2C show a comparison between the crawling speed of WT and Tg nematodes expressing wt (FIG. 2A), human wt (FIG. 2B), and A315T hTDP-43 (FIG. 2C) on the second day of adulthood.

[3] = system: Embryonic mouse hippocampal neurons transduced with TDP-43 EGFP; test: Neuroprotection assay (total dendrite length); type: cell-based; conditions: compound at 10 times the IC50 value, treated DIV7, 9, 11; fixed DIV12
Description: CMF dissection buffer: 1× Hank's balanced salt solution (Ca—/Mg, 500 mL) and 10 mM HEPES, pH 7.25-7.3 (IM stock, 5 mL)
Plating media: MEM (Earle salts+/Glutamine, 95 mL), FBS (to 2.5%, 2.5 mL), Pen/Strep (1×, 1 mL), glutamine (1×, 1 mL), and D-glucose (0.6% w/v, 0.6 g)
Feeding media: neurobasal media (96 mL), B27 supplement (2 mL), Pen/Strep (1 mL), and glutamine (1 mL).
Embryonic mouse hippocampal neurons were cultured according to Kaech, S. and Banker, G. (2006) Nat Protoc 1:2406-2415 and dissected at […] from CD1 mice. Once all the hippocampi were removed, they were placed in a 15 mL conical Falcon tube on ice and brought to a final volume of 4.5 mL with CMF dissection buffer. 0.5 mL of a 2.5% trypsin-EDTA solution was then added, and the mixture was incubated at 37° C. for 15 min. […] Neurons were traced and analyzed using NeuronJ.
Results of the neuroprotection assay for exemplary compounds of the invention are summarized in Table 1, wherein A represents an average rescue total dendrite length of >150%; B represents an average rescue total dendrite length of 100-149%; C represents an average rescue total dendrite length of 50-99%; D represents an average rescue total dendrite length of 0-49%; E represents an average rescue total dendrite length of <0%; and ND signifies that the average rescue total dendrite length was not determined.

[4] = system: TDP-43 inclusions in PC12 cells stably expressing wild type (WT) TDP-43-GFP; test: Dose response assay for TDP-43 inhibition; type: cell-based; conditions: Rattus norvegicus, PC-12
Description: Exemplary compounds of the invention were evaluated for efficacy in inhibiting TDP-43 inclusions using a dose response assay. Briefly, PC12 cells stably expressing wild type (WT) TDP-43-GFP were stressed with 15 μM to induce TDP-43 inclusions. The cells were then treated with exemplary compounds of the invention and the inhibitory effect on TDP-43 inclusions was observed using fluorescent microscopy. The ratio of cells with TDP-43 inclusions was calculated based on the total number of cells with detectable GFP expression. A 12-point dose response curve was generated, and the IC50 for each compound tested was determined.

| IC50 ([4]; inhibition of TDP-43 inclusions, PC12 cells WT TDP-43-GFP, 12-point dose response, read-out: IC50) [nM] | Structure (SMILES) | Reduction of TDP-43 aggregates in the sarkosyl insoluble fraction [1] | Neuroprotective effect on motor neurons [2] | Average Additive Dendrite Length (%) [3] | IC50 [4] [nM] |
| --- | --- | --- | --- | --- | --- |
| 101 to 250 | Cc1ccc(Cl)cc1NS(=O)(=O)c1c(C(=O)N2CCCC2)c(C)n(C)c1C [Compound 100, N-(5-chloro-2-methylphenyl)-1,2,5-trimethyl-4-(pyrrolidine-1-carbonyl)-1H-pyrrole-3-sulfonamide] | reduced dimeric and multimeric TDP-43 aggregates | neuroprotective effect | B (B represents an average rescue total dendrite length of 100-149%) | – |
| – | CCc1cccc(C)c1NS(=O)(=O)c1c(C(=O)N2CCCC2)c(C)n(C)c1C [Compound 101, N-(2-ethyl-6-methylphenyl)-1,2,5-trimethyl-4-(pyrrolidine-1-carbonyl)-1H-pyrrole-3-sulfonamide] | reduced dimeric and multimeric TDP-43 aggregates | – | A (A represents an average rescue total dendrite length of >150%) | 101 to 250 |
